Experimental findings from patent publication US12528802B2, “Heterocyclic compound” (Takeda Pharmaceutical Company Limited, priority 2019, dated 2026) are described below.

This assay deals with T1, glucosylceramide synthase (Homo sapiens, UniProt Q16739).
T1 construct: made in house; host or cells: Expi293F cells (transient expression, pcDNA3.3-TOPO vector); microsome fraction used as enzyme source
T1 sequence (Q16739 1-394): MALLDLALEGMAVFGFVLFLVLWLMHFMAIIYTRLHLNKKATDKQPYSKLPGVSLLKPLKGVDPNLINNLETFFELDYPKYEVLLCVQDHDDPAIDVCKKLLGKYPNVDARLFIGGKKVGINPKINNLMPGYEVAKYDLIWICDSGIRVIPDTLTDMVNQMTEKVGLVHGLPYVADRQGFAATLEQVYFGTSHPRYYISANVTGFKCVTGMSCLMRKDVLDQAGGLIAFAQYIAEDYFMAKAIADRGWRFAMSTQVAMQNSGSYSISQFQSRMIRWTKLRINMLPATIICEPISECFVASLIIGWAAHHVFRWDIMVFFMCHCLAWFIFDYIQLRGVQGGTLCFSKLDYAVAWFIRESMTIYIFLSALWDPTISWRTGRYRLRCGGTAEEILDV
In words: Glucosylceramide synthase (GCS) enzyme assay, microsome fraction, C8 glucosylceramide quantified by Rapidfire MS/MS. The class given is biochemical. To be noted: test compound 10 μM; 1.7 μM UDP-glucose, 3 μM C8 ceramide; room temperature 60 min; read-out: GCS enzyme inhibitory rate at 10 μM (%) (% of control). The method in brief:
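Test compound, 10 μM final, was run against human GCS from transfected Expi293F microsome fractions, using substrate solution of 6 μM C8 ceramide (in DOPC liposomes) plus 3.4 μM UDP-glucose, pH 7.5 Tris buffer, 60 min, room temperature. Product C8 glucosylceramide measured by Rapidfire MS/MS against an internal standard, % inhibition referenced to no-enzyme and DMSO wells.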

For the compound `O=C1c2ccnc(-c3ccc(F)cc3OCc3ccccc3)c2CN1c1ccc(OC(F)F)cc1` [Example 114, 4-[2-(benzyloxy)-4-fluorophenyl]-2-[4-(difluoromethoxy)phenyl]-2,3-dihydro-1H-pyrrolo[3,4-c]pyridin-1-one], the inhibition at 10 µM worked out at 99%. As to `CC(C)(O)c1ccc(N2Cc3c(ccnc3-c3ccccc3OCC(F)(F)F)C2=O)cn1` [Example 184, 2-[6-(2-hydroxypropan-2-yl)pyridin-3-yl]-4-[2-(2,2,2-trifluoroethoxy)phenyl]-2,3-dihydro-1H-pyrrolo[3,4-c]pyridin-1-one], the inhibition at 10 µM amounted to 96%. Under `CC(C)(C)c1cc2c(c(-c3ccccc3OCC(F)(F)F)n1)CN(c1ccc(C(C)(C)O)cc1)C2=O` [Example 389, 6-tert-butyl-2-[4-(2-hydroxypropan-2-yl)phenyl]-4-[2-(2,2,2-trifluoroethoxy)phenyl]-2,3-dihydro-1H-pyrrolo[3,4-c]pyridin-1-one] stands 100%; under `Fc1ccc(N2Cc3ccnc(-c4ccccc4OCC(F)(F)F)c3C2)cc1` [Example 168, 2-(4-fluorophenyl)-4-[2-(2,2,2-trifluoroethoxy)phenyl]-2,3-dihydro-1H-pyrrolo[3,4-c]pyridine], 100%; under `CC(C)(O)c1ccc(N2Cc3c(cn(C(F)F)c(=O)c3-c3ccccc3OCC(F)(F)F)C2=O)cc1` [Example 368, 5-(difluoromethyl)-2-[4-(2-hydroxypropan-2-yl)phenyl]-7-[2-(2,2,2-trifluoroethoxy)phenyl]-1H-pyrrolo[3,4-c]pyridine-3,6(2H,5H)-dione], 100%. For `O=C1c2cc(C3CCCOC3)nc(-c3ccc(F)cc3OCC(F)(F)F)c2CN1c1ccc(F)cc1` (racemic) [Example 386, rac-2-(4-fluorophenyl)-4-[4-fluoro-2-(2,2,2-trifluoroethoxy)phenyl]-6-(oxan-3-yl)-2,3-dihydro-1H-pyrrolo[3,4-c]pyridin-1-one], the inhibition at 10 µM was found to be 99%. For `CC(O)(c1ccc(N2Cc3c(ccnc3-c3ccccc3OCC(F)(F)F)C2=O)cc1)C(F)F` (racemic) [Example 308, rac-2-[4-(1,1-difluoro-2-hydroxypropan-2-yl)phenyl]-4-[2-(2,2,2-trifluoroethoxy)phenyl]-2,3-dihydro-1H-pyrrolo[3,4-c]pyridin-1-one], the inhibition at 10 µM worked out at 100%. `CC(C)(O)c1ccc(N2Cc3c(ccnc3-c3ccc(F)cc3OCC(F)F)C2=O)nc1` [Example 289, 4-[2-(2,2-difluoroethoxy)-4-fluorophenyl]-2-[5-(2-hydroxypropan-2-yl)pyridin-2-yl]-2,3-dihydro-1H-pyrrolo [3,4-c]pyridin-1-one]: the inhibition at 10 µM was determined as 98%. Consider `CC(C)(O)c1ccc(N2Cc3c(cc(C4CCOCC4)nc3-c3ccccc3OCC(F)(F)F)C2=O)cc1` [Example 379, 2-[4-(2-hydroxypropan-2-yl)phenyl]-6-(oxan-4-yl)-4-[2-(2,2,2-trifluoroethoxy)phenyl]-2,3-dihydro-1H-pyrrolo[3,4-c]pyridin-1-one], for which the inhibition at 10 µM was determined as 101%. For `COc1ccccc1-c1nccc2c1CN(c1ccc(OC(F)F)nc1)C2=O` [Example 27, 2-[6-(difluoromethoxy)pyridin-3-yl]-4-(2-methoxyphenyl)-2,3-dihydro-1H-pyrrolo[3,4-c]pyridin-1-one], the inhibition at 10 µM was determined as 93%. `Cn1cc2c(c(-c3ccccc3OCC(F)(F)F)c1=O)CN(c1ccc(OC(F)F)cc1)C2=O` [Example 236, 2-[4-(difluoromethoxy)phenyl]-5-methyl-7-[2-(2,2,2-trifluoroethoxy)phenyl]-1H-pyrrolo[3,4-c]pyridine-3,6(2H,5H)-dione]: the inhibition at 10 µM is 100%. As for `O=C1c2ccnc(-c3ccc(F)cc3OCC(F)(F)F)c2CN1c1cnn(CC2(F)COC2)c1` [Example 202, 2-{1-[(3-fluorooxetan-3-yl)methyl]-1H-pyrazol-4-yl}-4-[4-fluoro-2-(2,2,2-trifluoroethoxy)phenyl]-2,3-dihydro-1H-pyrrolo[3,4-c]pyridin-1-one], the inhibition at 10 µM stood at 95%. Then `CCC(=O)c1ccc(N2Cc3c(ccnc3-c3ccccc3OCC(F)(F)F)C2=O)cc1` [Example 190, 2-(4-propanoylphenyl)-4-[2-(2,2,2-trifluoroethoxy)phenyl]-2,3-dihydro-1H-pyrrolo[3,4-c]pyridin-1-one], with 98%. On to `O=C1c2ncnc(-c3ccc(F)cc3OCC(F)(F)F)c2CN1c1ccc(F)cc1` [Example 185, 6-(4-fluorophenyl)-4-[4-fluoro-2-(2,2,2-trifluoroethoxy)phenyl]-5,6-dihydro-7H-pyrrolo[3,4-d]pyrimidin-7-one], for which the inhibition at 10 µM stood at 71%. Then `O=C1c2ccnc(-c3ccccc3OCC(F)(F)F)c2CN1c1ccc(C(O)(C(F)F)C(F)F)cc1` [Example 246, 2-[4-(1,1,3,3-tetrafluoro-2-hydroxypropan-2-yl)phenyl]-4-[2-(2,2,2-trifluoroethoxy)phenyl]-2,3-dihydro-1H-pyrrolo[3,4-c]pyridin-1-one], with 100%; and `CS(=O)(=O)c1ccc(N2Cc3c(ccnc3-c3ccc(F)cc3OCC(F)(F)F)C2=O)cc1` [Example 88, 4-[4-fluoro-2-(2,2,2-trifluoroethoxy)phenyl]-2-[4-(methanesulfonyl)phenyl]-2,3-dihydro-1H-pyrrolo[3,4-c]pyridin-1-one], with 89%; and `COc1ccccc1-c1nccc2c1CN(c1ccc(F)cn1)C2=O` [Example 43, 2-(5-fluoropyridin-2-yl)-4-(2-methoxyphenyl)-2,3-dihydro-1H-pyrrolo[3,4-c]pyridin-1-one], with 95%. For `O=C1c2ccnc(-c3ccccc3OCC(F)(F)F)c2CN1c1ccc(C2(O)COC2)cn1` [Example 252, 2-[5-(3-hydroxyoxetan-3-yl)pyridin-2-yl]-4-[2-(2,2,2-trifluoroethoxy)phenyl]-2,3-dihydro-1H-pyrrolo[3,4-c]pyridin-1-one], the inhibition at 10 µM turned out to be 98%. For the compound `CC(C)(O)c1ccc(N2Cc3c(cc(C(C)(C)F)nc3-c3ccccc3OCC(F)(F)F)C2=O)cc1` [Example 384, 6-(2-fluoropropan-2-yl)-2-[4-(2-hydroxypropan-2-yl)phenyl]-4-[2-(2,2,2-trifluoroethoxy)phenyl]-2,3-dihydro-1H-pyrrolo[3,4-c]pyridin-1-one], the inhibition at 10 µM was 100%. Then `Cn1nc(N2Cc3c(ccnc3-c3ccc(F)cc3OCC(F)(F)F)C2=O)cc1C#N` [Example 318, 3-{4-[4-fluoro-2-(2,2,2-trifluoroethoxy)phenyl]-1-oxo-1,3-dihydro-2H-pyrrolo [3,4-c]pyridin-2-yl}-1-methyl-1H-pyrazole-5-carbonitrile], with 52%; and `O=C1c2ccnc(-c3ccc(F)cc3OCC(F)(F)F)c2CN1c1cnn(CC2CC2)c1` [Example 153, 2-[1-(cyclopropylmethyl)-1H-pyrazol-4-yl]-4-[4-fluoro-2-(2,2,2-trifluoroethoxy)phenyl]-2,3-dihydro-1H-pyrrolo[3,4-c]pyridin-1-one], with 98%; and `CC(C)(O)COc1ccc(N2Cc3c(ccnc3-c3ccccc3OCC(F)(F)F)C2=O)nc1` [Example 297, 2-[5-(2-hydroxy-2-methylpropoxy)pyridin-2-yl]-4-[2-(2,2,2-trifluoroethoxy)phenyl]-2,3-dihydro-1H-pyrrolo[3,4-c]pyridin-1-one], with 100%. Take `CC(C)(O)c1cc2c(c(-c3ccccc3OCC(F)F)n1)CN(c1ccc(C(F)F)cc1)C2=O` [Example 357, 4-[2-(2,2-difluoroethoxy)phenyl]-2-[4-(difluoromethyl)phenyl]-6-(2-hydroxypropan-2-yl)-2,3-dihydro-1H-pyrrolo[3,4-c] pyridin-1-one]: the inhibition at 10 µM is 100%. On to `CC(O)(c1ccc(N2Cc3c(ccnc3-c3ccc(F)cc3OCC(F)(F)F)C2=O)cc1)C(F)F` (racemic) [Example 296, rac-2-[4-(1,1-difluoro-2-hydroxypropan-2-yl)phenyl]-4-[4-fluoro-2-(2,2,2-trifluoroethoxy)phenyl]-2,3-dihydro-1H-pyrrolo[3,4-c]pyridin-1-one], for which the inhibition at 10 µM amounted to 100%. In the case of `CS(=O)(=O)c1ccc(N2Cc3ccnc(-c4ccc(F)cc4OCC(F)(F)F)c3C2)cc1` [Example 140, 4-[4-fluoro-2-(2,2,2-trifluoroethoxy)phenyl]-2-[4-(methanesulfonyl)phenyl]-2,3-dihydro-1H-pyrrolo[3,4-c]pyridine], the inhibition at 10 µM amounted to 86%. As to `O=C1c2ccnc(-c3ccc(F)cc3OCCOC(F)(F)F)c2CN1c1ccc(OC(F)F)nc1` [Example 174, 2-[6-(difluoromethoxy)pyridin-3-yl]-4-{4-fluoro-2-[2-(trifluoromethoxy)ethoxy]phenyl}-2,3-dihydro-1H-pyrrolo[3,4-c]pyridin-1-one], the inhibition at 10 µM is 99%. As for `O=C1c2ccnc(-c3ccccc3OCC(F)(F)F)c2CN1c1ccc(C(F)(F)F)cn1` [Example 60, 4-[2-(2,2,2-trifluoroethoxy)phenyl]-2-[5-(trifluoromethyl)pyridin-2-yl]-2,3-dihydro-1H-pyrrolo[3,4-c]pyridin-1-one], the inhibition at 10 µM was found to be 99%.
